The test system of data set [1] is Peripheral blood mononuclear cell (PBMC). In kind it is cell-based, human.
For data set [2], the system named is caspase 3/7. The experiment in a line: Caspase 3/7 activity in HL-60 cells with staurosporine. The following applies: HL-60, staurosporine. In kind it is cell-based, human.
For the next data set, the system named is HL-60 cells. The following applies: for effect on staurosporine cytotoxicity (cell number): chimera at forty-eight hours.
In data set [3] the test system is caspase 3/7. The experiment in a line: Caspase 3/7 activity in monocytes treated with cytotoxic drugs. In kind it is cell-based, human.
Data set [4] is described as follows: Protease sensitivity during expression in Pichia pastoris. The following applies: high concentrations of protease inhibitors.
Protocol: In Pichia, GM-CSF-Bcl-XL was expressed intracellularly. The expression was monitored by Western blot.
The cells were harvested by centrifugation at 5,000 g, and, washed with binding buffer (5 mM imidazole, 20 mM Tris/Cl pH 7.9, 0.5M NaCl) containing 2 protease inhibitor tablets, COMPLETE PROTEASE INHIBITOR COCKTAIL EDTA-free (Roche Diagnostics, Indianapolis, Ind.),/50 ml of buffer. Cells were lysed by adding 100 g of acid washed glass beads (0.5 g of beads/ml of initial culture) with 1 cycle of 5 minutes, frequency 30 Hz, in a mixer mill (Retsch MM200, Haan, Del.). The cellular debris were eliminated by centrifugation at 18,000 g, 5 minutes at 4° C.

Turning to “GM-CSF: human granulocyte-macrophage colony-stimulating factor, a cytokine”, in data set [1], the “prosurvival activity in the presence of AG 490” value is recorded as “completely inhibited” and the “prosurvival activity in the presence of staurosporine” value is on record as “largely inhibited”. Besides, in the data set on caspase 3/7 [2], the “effect on caspase activity / apoptosis” value was “reduced”. The “effect on staurosporine cytotoxicity (cell number)” value in the data set with HL-60 cells (HL-60, staurosporine) is “not able to block the cytotoxic effect of staurosporine”.

Turning to “GM-CSF-Bcl-XL: chimeric protein: human GM-CSF fused via glycine-serine-threonine linker to full length human Bcl-XL, N-terminal His tag, expressed in E. coli (SEQ ID NO:1)”, in data set [1], the “protection of PBMC from kinase inhibitors / apoptosis” value is “protected PBMC from both kinase inhibitors in a dose dependent manner”. For the same compound, in data set [1] (0.24 µM), the “increase in cell viability in the presence of AG409” value is listed as 30% and the “increase in cell viability in the presence of staurosporine” value stood at 50%. For the same compound, in the data set on caspase 3/7 [3], the “inhibition of caspase 3/7 activity compared with GM-CSF at the same concentration” value is recorded as “more effective”. For the same compound, the “reduction of caspase activity” value in the data set on caspase 3/7 [3] (monocytes, 2.4 μM, cytotoxic drugs) is on record as “more than 50%”. The “time of maximum effect on proliferation” value in the data set on HL-60 cells (HL-60) was determined as 48 h. For the same compound, the “proliferation activity higher than in cells treated with the same molar amount of GM-CSF” value in the data set on HL-60 cells (HL-60, 48 hours) is 30%. For the same compound, in the data set on HL-60 cells (HL-60, staurosporine), the “duration of protection from staurosporine” value is listed as “at least seventy-two hours” and the “effect on staurosporine cytotoxicity (cell number)” value is on record as “approximately the same number of cells as control cultures without staurosporine”. Further, in the data set with HL-60 cells (HL-60, with staurosporine, seventy-two hours, versus control), the “reduction in cell death” value is reported as 30%. Besides, in the data set with HL-60 cells (HL-60, with staurosporine, seventy-two hours, 50% of control cells had died), the “cells that had died” value was determined as 20%. Besides, the “protection of colonies in the presence of cytarabine” value in the data set on CD34^+ cells (CD34+ cells, cytarabine) is listed as “selectively protected the CFU-GM colonies relative to BFU-E”. Besides, in the data set on CD34^+ cells (CD34+ cells, essential medium, no growth factor/cytokines), the “colonies under cytokine deprivation” value is “protected myeloid precursors from cytokine deprivation”. Besides, the “effect on number of colonies” value in the data set with CD34^+ cells (CD34+ cells, supplemented medium (SCF, erythropoietin, cytokines)) is recorded as “two-fold”. For the same compound, in data set [4], the sensitivity to proteolysis result is “very sensitive to proteolysis”.

On to `CN[C@@H]1C[C@H]2O[C@@](C)([C@@H]1OC)n1c3ccccc3c3c4c(c5c6ccccc6n2c5c31)C(=O)NC4` [staurosporine, reference compound], for which the “effect on caspase activity / apoptosis” value with caspase 3/7 [2] is “induced apoptosis at the highest levels”.

For `Nc1ccn([C@@H]2O[C@H](CO)[C@@H](O)[C@@H]2O)c(=O)n1` [cytarabine, reference compound], the “effect on growth of CFU-GM and BFU-E colonies” value in the data set on CD34^+ cells is reported as “drastically impaired”.

These data come from US20100317577A1, “Methods and Compositions for Inhibiting Cell Death or Enhacing Cell Proliferation” (Department of Health and Human Services, priority 2005, published 2010).
